Values quoted from earlier work as cited in patent publication EP4684794A1, “TECHNICAL FORMULATION FOR ACTIVE ABSORPTION OF AMINO ACIDS BY HUMAN REPRODUCTIVE SYSTEM” (Xu, Haohan, priority 2023, dated 2024).

What was measured:
[1] = tested on: MC3T3-E1 osteoblasts; conditions: platelet-derived growth factor-BB, SAPK/JNK pathway
[2] = tested on: bone marrow macrophages; conditions: blocking the NF- κ B and MAPK signaling pathways

O=C(O[C@@H]1Cc2c(O)cc(O)cc2O[C@@H]1c1cc(O)c(O)c(O)c1)c1cc(O)c(O)c(O)c1 [EGCG, epigallocatechin gallate]
teratogenic or developmental toxicity (animal experiments): no teratogenic or developmental toxicity was observed | genotoxicity (mouse body fluid analyses): no genotoxic effects | expression of IL-6 and IL-6 mRNA [1]: reducing the expression of IL-6 and IL-6 mRNA | LPS-mediated pro-inflammatory gene expression [2]: may prevent LPS-mediated pro-inflammatory gene expression
